From patent publication US20230096766A1, “AMINO ACID HAVING FUNCTIONAL GROUP CAPABLE OF INTERMOLECULAR HYDROGEN BONDING, PEPTIDE COMPOUND CONTAINING SAME AND METHOD FOR PRODUCTION THEREOF” (Chugai Seiyaku Kabushiki Kaisha, priority 2018, published 2023)
*1 amine or outer side, *2 acyl side, *3 side chain or, on linkers, in order; H or OH if unused. Where a SMILES comes first, the peptide text is derived from it. Bridges are numbered along the chain shown (N, C = ends). [ ]: non-standard residue; d: D form. The star is where a group is joined. hPhe(3-OMe,4-CONHMe) = CNC(=O)c1ccc(CC[C@H](N)C(=O)O)cc1OC; NMePhe(3-Cl) = CN[C@@H](Cc1cccc(Cl)c1)C(=O)O; NMehPhe = CN[C@@H](CCc1ccccc1)C(=O)O; X6 = O=C([C@H](CCCCO)N[*:1])[*:2]; NMeF = CN[C@@H](Cc1ccccc1)C(=O)O; NMeGABA = CN(CCCC(=O)[*:2])[*:1]; NMeI = CC[C@H](C)[C@H](NC)C(=O)O; NMeL = CN[C@@H](CC(C)C)C(=O)O; NMeV = CN[C@H](C(=O)O)C(C)C; NMeAbu = CC[C@H](NC)C(=O)O; NMeA = CN[C@@H](C)C(=O)O; Piperidide = C1CCN(*)CC1; dAbu = CC[C@@H](N)C(=O)O; dNMeA = CN[C@H](C)C(=O)O; NBuGly = CCCCNCC(=O)O; Isopentyl = CC(C)CC*; NPrGly = CCCNCC(=O)O; Ethyl(2-OH) = OCC*; Sar = CNCC(=O)O

Test: in vitro
Conditions: human, Caco-2, Caco-2 (cm/sec)
Work on `CNC(=O)c1ccc(CC[C@@H]2NC(=O)[C@H](CC(C)C)N(C)C(=O)[C@H]([C@@H](C)O)NC(=O)[C@H](CC(C)C)N(C)C(=O)[C@H](CC(C)C)N(C)C(=O)[C@@H](C)N(C)C(=O)C[C@@H](C(=O)N3CCCCC3)NC(=O)[C@H](CC(C)C)N(C)C2=O)cc1OC` [AP262] ([dNMeA][NMeL][NMeL]T[NMeL][hPhe(3-OMe,4-CONHMe)][NMeL]D-Piperidide; lactam N-8) yielded a Papp of 0.17 ×10⁻⁶ cm/s.
For `CC[C@H](C)[C@@H]1NC(=O)[C@H](CC(C)C)NC(=O)[C@H](CC(C)C)N(C)C(=O)[C@H](CC(C)C)NC(=O)C[C@@H](C(=O)N2CCCCC2)NC(=O)[C@H](CC(C)C)N(C)C(=O)[C@H]([C@@H](C)O)NC(=O)[C@H](CCc2ccc(C(=O)NC)c(OC)c2)NC(=O)[C@H](CC(C)C)N(C)C1=O` [AP263] (L[NMeL]LI[NMeL][hPhe(3-OMe,4-CONHMe)]T[NMeL]D-Piperidide; lactam N-9), the Papp was 1.8 ×10⁻⁶ cm/s.
In the case of `CCCCN1CC(=O)N[C@@H](CC(C)C)C(=O)N2CCC[C@H]2C(=O)N(C)[C@@H](C(C)C)C(=O)N[C@@H](CCc2ccc(C(=O)NC)c(OC)c2)C(=O)N(C)[C@@H](Cc2ccccc2)C(=O)N(C)[C@@H](CC(C)C)C(=O)N[C@@H](CC(C)C)C(=O)N(C)[C@@H]([C@@H](C)CC)C(=O)N[C@H](C(=O)N2CCCCC2)CC(=O)N[C@H](C(C)C)C(=O)N[C@@H]([C@@H](C)O)C1=O` [AP265] ([dV]T[NBuGly]LP[NMeV][hPhe(3-OMe,4-CONHMe)][NMeF][NMeL]L[NMeI]D-Piperidide; lactam N-12), the Papp is reported as 0.46 ×10⁻⁶ cm/s.
With `CC[C@H](C)[C@@H]1NC(=O)[C@H](Cc2ccccc2)N(C)C(=O)[C@H](CCc2ccc(C(=O)NC)c(OC)c2)NC(=O)[C@H](CC(C)C)N(C)C(=O)[C@H](C(C)C)NC(=O)[C@H](CC(C)C)N(C)C(=O)[C@H](CC(C)C)N(C)C(=O)CNC(=O)[C@H](CC)N(C)C(=O)C[C@@H](C(=O)N2CCCCC2)NC(=O)[C@H]([C@@H](C)O)NC(=O)[C@H](CC(C)C)N(C)C(=O)[C@H](CC(C)C)N(C)C1=O` [AP266] ([NMeAbu]G[NMeL][NMeL]V[NMeL][hPhe(3-OMe,4-CONHMe)][NMeF]I[NMeL][NMeL]TD-Piperidide; lactam N-13) the Papp was < 0.0895 ×10⁻⁶ cm/s.
In the case of `CCCN1CC(=O)N(C)[C@@H](CC(C)C)C(=O)N[C@@H](COCCC(C)C)C(=O)N(C)[C@@H](Cc2ccccc2)C(=O)N(C)[C@@H](CC(C)C)C(=O)N[C@H](C(=O)N2CCCCC2)CC(=O)N[C@H](C(C)C)C(=O)N(C)[C@@H](CCc2ccccc2)C(=O)N[C@@H](COCCO)C(=O)N(C)[C@@H](CC(C)C)C(=O)N[C@@H]([C@@H](C)O)C1=O` [Compound A01] ([dV][NMehPhe]S(Ethyl(2-OH))[NMeL]T[NPrGly][NMeL]S(Isopentyl)[NMeF][NMeL]D-Piperidide; lactam N-11), the Papp is reported as 0.6 ×10⁻⁶ cm/s.
In the case of `CC(C)C[C@@H]1NC(=O)[C@H](CCc2ccccc2)N(C)C(=O)[C@@H](C(C)C)NC(=O)C[C@@H](C(=O)N2CCCCC2)NC(=O)[C@H](CC(C)C)N(C)C(=O)[C@H](Cc2cccc(Cl)c2)N(C)C(=O)[C@H](COCCO)NC(=O)[C@H](CC(C)C)N(C)C(=O)CN(C)C(=O)[C@H]([C@@H](C)O)NC(=O)[C@H](CC(C)C)N(C)C1=O` [Compound A02] ([dV][NMehPhe]L[NMeL]T[Sar][NMeL]S(Ethyl(2-OH))[NMePhe(3-Cl)][NMeL]D-Piperidide; lactam N-11), the Papp is reported as 0.45 ×10⁻⁶ cm/s.
With `CC(C)C[C@@H]1NC(=O)[C@H](CCc2ccccc2)N(C)C(=O)[C@H](CCc2ccccc2)N(C)C(=O)[C@H](COCCO)NC(=O)[C@H](CC(C)C)N(C)C(=O)CCCN(C)C(=O)C[C@@H](C(=O)N2CCCCC2)NC(=O)[C@H](CC(C)C)N(C)C(=O)[C@H](CC(C)C)N(C)C(=O)[C@H]([C@@H](C)O)NC(=O)[C@H](CC(C)C)N(C)C1=O` [Compound A03] ([NMeGABA][NMeL]S(Ethyl(2-OH))[NMehPhe][NMehPhe]L[NMeL]T[NMeL][NMeL]D-Piperidide; lactam N-11) the Papp was 0.32 ×10⁻⁶ cm/s.
With `CC[C@H](C)[C@@H]1NC(=O)[C@H](CC(C)C)N(C)C(=O)CCCN(C)C(=O)C[C@@H](C(=O)N2CCCCC2)NC(=O)[C@H](CC(C)C)N(C)C(=O)[C@H](CC(C)C)N(C)C(=O)[C@H]([C@@H](C)O)NC(=O)[C@H](CC(C)C)N(C)C(=O)[C@H](COCCO)NC(=O)[C@H](CCc2ccccc2)N(C)C(=O)[C@H](CCc2ccccc2)N(C)C1=O` [Compound A04] ([NMeGABA][NMeL]I[NMehPhe][NMehPhe]S(Ethyl(2-OH))[NMeL]T[NMeL][NMeL]D-Piperidide; lactam N-11) the Papp was 0.41 ×10⁻⁶ cm/s.
`CCCN1CC(=O)N(C)[C@@H](CC(C)C)C(=O)N[C@H](C(=O)N2CCCCC2)CC(=O)N(C)[C@@H](C)C(=O)N[C@@H](COCCO)C(=O)N(C)[C@@H](CC(C)C)C(=O)N(C)[C@@H](Cc2cccc(Cl)c2)C(=O)N[C@@H](CC(C)C)C(=O)N(C)[C@@H](CCc2ccccc2)C(=O)N(C)[C@@H](CC(C)C)C(=O)N[C@@H]([C@@H](C)O)C1=O` [Compound A05] ([NMeA]S(Ethyl(2-OH))[NMeL][NMePhe(3-Cl)]L[NMehPhe][NMeL]T[NPrGly][NMeL]D-Piperidide; lactam N-11) showed a Papp of 0.9 ×10⁻⁶ cm/s.
Compound `CC(C)C[C@@H]1NC(=O)[C@H](C(C)C)N(C)C(=O)C[C@@H](C(=O)N2CCCCC2)NC(=O)[C@H](CC(C)C)N(C)C(=O)CN(C)C(=O)[C@H]([C@@H](C)O)NC(=O)[C@H](CC(C)C)N(C)C(=O)[C@H](CCc2ccccc2)N(C)C(=O)[C@H](COCCO)NC(=O)[C@H](Cc2ccccc2)N(C)C(=O)[C@H](CC(C)C)N(C)C1=O` [Compound A06] ([NMeV]L[NMeL][NMeF]S(Ethyl(2-OH))[NMehPhe][NMeL]T[Sar][NMeL]D-Piperidide; lactam N-11) has a Papp of 0.53 ×10⁻⁶ cm/s.
With `CCCN1CC(=O)N(C)[C@@H](CCc2ccccc2)C(=O)N(C)[C@@H](CC(C)C)C(=O)N[C@@H](COCCC(C)C)C(=O)N(C)[C@@H](CC(C)C)C(=O)N[C@H](C(=O)N2CCCCC2)CC(=O)N(C)CC(=O)N(C)[C@@H](Cc2cccc(Cl)c2)C(=O)N[C@@H](COCCO)C(=O)N(C)[C@@H](CC(C)C)C(=O)N[C@@H]([C@@H](C)O)C1=O` [Compound A07] ([Sar][NMePhe(3-Cl)]S(Ethyl(2-OH))[NMeL]T[NPrGly][NMehPhe][NMeL]S(Isopentyl)[NMeL]D-Piperidide; lactam N-11) the Papp was 0.53 ×10⁻⁶ cm/s.
With `CCCN1CC(=O)N(C)[C@@H](Cc2cccc(Cl)c2)C(=O)N(C)[C@@H](CC(C)C)C(=O)N[C@@H](COCCO)C(=O)N(C)[C@@H](CC(C)C)C(=O)N[C@H](C(=O)N2CCCCC2)CC(=O)N(C)CC(=O)N(C)[C@@H](CCc2ccccc2)C(=O)N[C@@H]([C@@H](C)CC)C(=O)N(C)[C@@H](CC(C)C)C(=O)N[C@@H]([C@@H](C)O)C1=O` [Compound A08] ([Sar][NMehPhe]I[NMeL]T[NPrGly][NMePhe(3-Cl)][NMeL]S(Ethyl(2-OH))[NMeL]D-Piperidide; lactam N-11) the Papp was 0.32 ×10⁻⁶ cm/s.
In the case of `CC(C)C[C@@H]1NC(=O)[C@H](Cc2cccc(Cl)c2)N(C)C(=O)[C@H](CC(C)C)N(C)C(=O)[C@H](COCCO)NC(=O)[C@H](C(C)C)N(C)C(=O)C[C@@H](C(=O)N2CCCCC2)NC(=O)[C@H](CC(C)C)N(C)C(=O)CN(C)C(=O)[C@H]([C@@H](C)O)NC(=O)[C@H](CC(C)C)N(C)C(=O)[C@H](CCc2ccccc2)N(C)C1=O` [Compound A09] ([NMeV]S(Ethyl(2-OH))[NMeL][NMePhe(3-Cl)]L[NMehPhe][NMeL]T[Sar][NMeL]D-Piperidide; lactam N-11), the Papp is reported as 0.72 ×10⁻⁶ cm/s.
With `CCCN1CC(=O)N(C)[C@@H](CC(C)C)C(=O)N[C@@H](COCCC(C)C)C(=O)N(C)[C@@H](Cc2ccccc2)C(=O)N(C)[C@@H](CC(C)C)C(=O)N[C@H](C(=O)N2CCCCC2)CC(=O)N[C@H](CC)C(=O)N(C)[C@@H](CCc2ccccc2)C(=O)N[C@@H](CCCCO)C(=O)N(C)[C@@H](CC(C)C)C(=O)N[C@@H]([C@@H](C)O)C1=O` [Compound B01] ([dAbu][NMehPhe][X6][NMeL]T[NPrGly][NMeL]S(Isopentyl)[NMeF][NMeL]D-Piperidide; lactam N-11) the Papp was < 0.11 ×10⁻⁶ cm/s.
In the case of `CC[C@H]1NC(=O)C[C@@H](C(=O)N2CCCCC2)NC(=O)[C@H](CC(C)C)N(C)C(=O)[C@H](Cc2cccc(Cl)c2)N(C)C(=O)[C@H](CCCCO)NC(=O)[C@H](CC(C)C)N(C)C(=O)CN(C)C(=O)[C@H]([C@@H](C)O)NC(=O)[C@H](CC(C)C)N(C)C(=O)[C@H](CC(C)C)NC(=O)[C@H](CCc2ccccc2)N(C)C1=O` [Compound B02] ([dAbu][NMehPhe]L[NMeL]T[Sar][NMeL][X6][NMePhe(3-Cl)][NMeL]D-Piperidide; lactam N-11), the Papp is reported as 0.15 ×10⁻⁶ cm/s.
In the case of `CC(C)C[C@@H]1NC(=O)[C@H](CCc2ccccc2)N(C)C(=O)[C@H](CCc2ccccc2)N(C)C(=O)[C@H](CCCCO)NC(=O)[C@H](C(C)C)N(C)C(=O)CCCN(C)C(=O)C[C@@H](C(=O)N2CCCCC2)NC(=O)[C@H](CC(C)C)N(C)C(=O)[C@H](CC(C)C)N(C)C(=O)[C@H]([C@@H](C)O)NC(=O)[C@H](CC(C)C)N(C)C1=O` [Compound B03] ([NMeGABA][NMeV][X6][NMehPhe][NMehPhe]L[NMeL]T[NMeL][NMeL]D-Piperidide; lactam N-11), the Papp is reported as 0.27 ×10⁻⁶ cm/s.
For `CC(C)C[C@H]1C(=O)N[C@@H](C(C)C)C(=O)N(C)[C@@H](CCc2ccccc2)C(=O)N(C)[C@@H](CCc2ccccc2)C(=O)N[C@@H](CCCCO)C(=O)N(C)[C@@H](CC(C)C)C(=O)N[C@@H]([C@@H](C)O)C(=O)N(C)[C@@H](CC(C)C)C(=O)N(C)[C@@H](CC(C)C)C(=O)N[C@H](C(=O)N2CCCCC2)CC(=O)N(C)CCCC(=O)N1C` [Compound B04] ([NMeGABA][NMeL]V[NMehPhe][NMehPhe][X6][NMeL]T[NMeL][NMeL]D-Piperidide; lactam N-11), the Papp was 0.07 ×10⁻⁶ cm/s.
With `CCCN1CC(=O)N(C)[C@@H](CC(C)C)C(=O)N[C@H](C(=O)N2CCCCC2)CC(=O)N(C)[C@@H](C)C(=O)N[C@@H](CCCCO)C(=O)N(C)[C@@H](CC(C)C)C(=O)N(C)[C@@H](Cc2cccc(Cl)c2)C(=O)N[C@@H](C(C)C)C(=O)N(C)[C@@H](CCc2ccccc2)C(=O)N(C)[C@@H](CC(C)C)C(=O)N[C@@H]([C@@H](C)O)C1=O` [Compound B05] ([NMeA][X6][NMeL][NMePhe(3-Cl)]V[NMehPhe][NMeL]T[NPrGly][NMeL]D-Piperidide; lactam N-11) the Papp was 0.26 ×10⁻⁶ cm/s.
Work on `CC[C@H]1C(=O)N[C@@H](CC(C)C)C(=O)N(C)[C@@H](CC(C)C)C(=O)N(C)[C@@H](Cc2ccccc2)C(=O)N[C@@H](CCCCO)C(=O)N(C)[C@@H](CCc2ccccc2)C(=O)N(C)[C@@H](CC(C)C)C(=O)N[C@@H]([C@@H](C)O)C(=O)N(C)CC(=O)N(C)[C@@H](CC(C)C)C(=O)N[C@H](C(=O)N2CCCCC2)CC(=O)N1C` [Compound B06] ([NMeAbu]L[NMeL][NMeF][X6][NMehPhe][NMeL]T[Sar][NMeL]D-Piperidide; lactam N-11) yielded a Papp of 0.39 ×10⁻⁶ cm/s.
